In patent US11180657B2, “Polysulfonated fluorescence dyes” (ATTO-TEC GmbH, priority 2017, dated 2021):
Marks after values point to notes of the source that are not given here.

Key:
[1] = Absorption maximum of the dye; assay type: physicochemical
Text: (§1) Examples of the compounds according to the invention are listed in Tables 2-6, where the structures as well as the absorption and fluorescence maxima are indicated. The spectra of selected compounds are shown FIGS. 5-18.

[2] = Fluorescence maximum of the dye; assay type: physicochemical
Text: as §1

Row | Structure (SMILES) | λabs ([1]; solvent PBS pH 7.4) | λfl ([2]; solvent PBS pH 7.4) | λabs ([1]; solvent ethanol) | λfl ([2]; solvent ethanol)
1 | Cn1cc[n+](CCCC(=O)O)c1C1=c2cc3c(cc2[Si](C)(C)c2cc4c(cc21)C(CS(=O)(=O)O)=CC(C)(C)N4Cc1ccc(S(=O)(=O)O)cc1S(=O)(=O)O)=[N+](Cc1ccc(S(=O)(=O)O)cc1S(=O)(=O)O)C(C)(C)C=C3CS(=O)(=O)O [Compound 62] | 791^b nm | 817^b nm |  | 
2 | Cn1cc[n+](CCCC(=O)O)c1C1=c2cc3c(cc2[Si](C)(C)c2cc4c(cc21)C(CS(=O)(=O)O)CC(C)(C)N4Cc1ccc(S(=O)(=O)O)cc1S(=O)(=O)O)=[N+](Cc1ccc(S(=O)(=O)O)cc1S(=O)(=O)O)C(C)(C)CC3CS(=O)(=O)O (stereo not shown) [Compound 63] | 752^b nm | 776^b nm |  | 
3 | CN(CCCC(=O)O)C(=O)c1ccccc1C1=C2C=C/C(=[N+](\C)Cc3ccc(S(=O)(=O)O)cc3S(=O)(=O)O)C=C2[Si](C)(C)c2cc(N(C)Cc3ccc(S(=O)(=O)O)cc3S(=O)(=O)O)ccc21 [Compound 69] | 658^b nm | 680^b nm |  | 
4 | CN(Cc1ccc(S(=O)(=O)O)cc1S(=O)(=O)O)c1ccc2c(c1)[Si](C)(C)C1=C/C(=[N+](/C)Cc3ccc(S(=O)(=O)O)cc3S(=O)(=O)O)C=CC1=C2c1cc(C(=O)O)ccc1C(=O)O [Compound 70] | 649^b nm | 670^b nm |  | 
5 | CN(CCCC(=O)O)C(=O)c1ccccc1C1=c2cc3c(cc2[Si](C)(C)c2cc4c(cc21)C(CS(=O)(=O)O)=CC(C)(C)N4Cc1ccc(S(=O)(=O)O)cc1S(=O)(=O)O)=[N+](Cc1ccc(S(=O)(=O)O)cc1S(=O)(=O)O)C(C)(C)C=C3CS(=O)(=O)O [Compound 71] | 722^b nm | 752^b nm |  | 
6 | CC1(C)C=C(CS(=O)(=O)O)c2cc3c(cc2N1Cc1ccc(S(=O)(=O)O)cc1S(=O)(=O)O)[Si](C)(C)c1cc2c(cc1=C3c1cc(C(=O)O)ccc1C(=O)O)C(CS(=O)(=O)O)=CC(C)(C)[N+]=2Cc1ccc(S(=O)(=O)O)cc1S(=O)(=O)O [Compound 72] | 711^b nm | 740^b nm |  | 
7 | CN(CCCC(=O)O)C(=O)c1ccccc1C1=c2cc3c(cc2[Si](C)(C)c2cc4c(cc21)C(CS(=O)(=O)O)CC(C)(C)N4Cc1ccc(S(=O)(=O)O)cc1S(=O)(=O)O)=[N+](Cc1ccc(S(=O)(=O)O)cc1S(=O)(=O)O)C(C)(C)CC3CS(=O)(=O)O (stereo not shown) [Compound 73] | 686^b nm | 708^b nm |  | 
8 | CC1(C)CC(CS(=O)(=O)O)c2cc3c(cc2N1Cc1ccc(S(=O)(=O)O)cc1S(=O)(=O)O)[Si](C)(C)c1cc2c(cc1=C3c1cc(C(=O)O)ccc1C(=O)O)C(CS(=O)(=O)O)CC(C)(C)[N+]=2Cc1ccc(S(=O)(=O)O)cc1S(=O)(=O)O (stereo not shown) [Compound 74] | 675^b nm | 698^b nm |  | 
9 | CN(C)c1ccc2c(c1)C(C)(C)c1cc3c(cc1=C2)CCC[N+]=3CS(=O)(=O)O [Compound 75] |  |  | 597^a nm | 621^a nm
10 | CN(C)c1ccc2c(c1)C(C)(C)c1cc3c(cc1=C2)CCC[N+]=3Cc1ccc(S(=O)(=O)O)cc1S(=O)(=O)O [Compound 76] | 596^b nm | 622^b nm |  | 
11 | CC1(C)c2c(cc3c4c2CCCN4CCC3)C=c2cc3c(cc21)=[N+](Cc1ccc(S(=O)(=O)O)cc1S(=O)(=O)O)CCC3 [Compound 79] | 627^b nm | 649^b nm |  | 
12 | CC1(C)c2c(cc3c4c2CCCN4CCC3)C(C#N)=c2cc3c(cc21)=[N+](Cc1ccc(S(=O)(=O)O)cc1S(=O)(=O)O)CCC3 [Compound 80] | 739^b nm | 761^b nm |  | 
13 | CCN(CS(=O)(=O)O)c1ccc2c(c1)[Si](C)(C)C1=C/C(=[N+](/CC)CS(=O)(=O)O)C=CC1=C2NCCS(=O)(=O)O [Compound 87] | 472^b nm | 605^b nm |  | 
14 | CCN(CS(=O)(=O)O)c1ccc2c(c1)[Si](C)(C)C1=C/C(=[N+](/CC)CS(=O)(=O)O)C=CC1=C2NCC(S(=O)(=O)O)S(=O)(=O)O [Compound 88] | 471^b nm | 605^b nm |  | 
15 | CN(Cc1ccc(S(=O)(=O)O)cc1S(=O)(=O)O)c1ccc2c(c1)[Si](C)(C)C1=C/C(=[N+](/C)Cc3ccc(S(=O)(=O)O)cc3S(=O)(=O)O)C=CC1=C2C#N [Compound 89] | 746^b nm | 763^b nm |  | 
16 | CN(Cc1ccc(S(=O)(=O)O)cc1S(=O)(=O)O)c1ccc2c(c1)[Si](C)(C)C1=C/C(=[N+](/C)Cc3ccc(S(=O)(=O)O)cc3S(=O)(=O)O)C=CC1=C2NCCCC(=O)O [Compound 90] | 483^b nm | 637^b nm |  | 
17 | CC1(C)C=C(CS(=O)(=O)O)c2cc3c(cc2N1CCCC(=O)O)[Si](C)(C)c1cc2c(cc1=C3)C(CS(=O)(=O)O)=CC(C)(C)[N+]=2CS(=O)(=O)O [Compound 91] | 715^b nm | 738^b nm |  | 
18 | CC1(C)C=C(CS(=O)(=O)O)c2cc3c(cc2N1CCCC(=O)O)[Si](C)(C)c1cc2c(cc1=C3C#N)C(CS(=O)(=O)O)=CC(C)(C)[N+]=2CCS(=O)(=O)O [Compound 92] | 817^b nm | 841^b nm |  | 
19 | CC1(C)C=C(CS(=O)(=O)O)c2cc3c(cc2N1CCCC(=O)O)[Si](C)(C)c1cc2c(cc1=C3NCC(S(=O)(=O)O)S(=O)(=O)O)C(CS(=O)(=O)O)=CC(C)(C)[N+]=2CCS(=O)(=O)O [Compound 93] | 516^b nm | 695^b nm |  | 

The remaining lines, values ahead:

Row | λabs ([1]; solvent PBS pH 7.4) | λfl ([2]; solvent PBS pH 7.4) | λabs ([1]; solvent ethanol) | λfl ([2]; solvent ethanol) | Structure (SMILES)
20 | 725^b nm | 749^b nm |  |  | CCN1c2cc3c(cc2C(CS(=O)(=O)O)=CC1(C)C)C(c1n(C)cc[n+]1CCCCS(=O)(=O)O)=c1cc2c(cc1C3(C)C)=[N+](Cc1ccc(S(=O)(=O)O)cc1S(=O)(=O)O)CCC2 [Compound 55]
21 | 724^b nm | 746^b nm |  |  | CCN1c2cc3c(cc2C(CS(=O)(=O)O)=CC1(C)C)C(c1n(C)cc[n+]1CCCC(=O)O)=c1cc2c(cc1C3(C)C)=[N+](Cc1ccc(S(=O)(=O)O)cc1S(=O)(=O)O)CCC2 [Compound 56]
22 | 725^b nm | 749^b nm |  |  | Cn1cc[n+](CCCCS(=O)(=O)O)c1C1=c2cc3c(cc2C(C)(C)c2cc4c(cc21)C(CS(=O)(=O)O)=CC(C)(C)N4CCCC(=O)O)=[N+](Cc1ccc(S(=O)(=O)O)cc1S(=O)(=O)O)CCC3 [Compound 57]
23 | 742^b nm | 775^b nm |  |  | CC1=CC(C)(C)N(Cc2ccc(S(=O)(=O)O)cc2)c2cc3c(cc21)C(c1n(C)cc[n+]1CCCCS(=O)(=O)O)=c1cc2c(cc1C3(C)C)=[N+](CCCC(=O)O)C(C)(C)C=C2C [Compound 58]
24 | 739^b nm | 771^b nm |  |  | Cn1cc[n+](CCCCS(=O)(=O)O)c1C1=c2cc3c(cc2C(C)(C)c2cc4c(cc21)C(CS(=O)(=O)O)=CC(C)(C)N4CCS(=O)(=O)O)=[N+](CCCC(=O)O)C(C)(C)C=C3CS(=O)(=O)O [Compound 59]
25 | 742^b nm | 775^b nm |  |  | Cn1cc[n+](CCCCS(=O)(=O)O)c1C1=c2cc3c(cc2C(C)(C)c2cc4c(cc21)C(CS(=O)(=O)O)=CC(C)(C)N4Cc1ccc(S(=O)(=O)O)cc1S(=O)(=O)O)=[N+](CCCC(=O)O)C(C)(C)C=C3CS(=O)(=O)O [Compound 60]
26 | 743^b nm | 776^b nm |  |  | CC[N+]1=c2cc3c(cc2C(CS(=O)(=O)O)=CC1(C)C)=C(c1n(C)cc[n+]1CCCCC(=O)O)c1cc2c(cc1C3(C)C)N(Cc1ccc(S(=O)(=O)O)cc1S(=O)(=O)O)C(C)(C)C=C2CS(=O)(=O)O [Compound 61]
27 | 667^b nm | 697^b nm |  |  | CC[N+]1=c2cc3c(cc2C(CS(=O)(=O)O)=CC1(C)C)=C(c1ccc(C(=O)O)cc1)c1cc2c(cc1C3(C)C)N(Cc1ccc(S(=O)(=O)O)cc1S(=O)(=O)O)C(C)(C)C=C2CS(=O)(=O)O [Compound 64]
28 | 679^b nm | 706^b nm |  |  | CCN1c2cc3c(cc2C(CS(=O)(=O)O)=CC1(C)C)C(c1ccccc1C(=O)N(C)CCCC(=O)O)=c1cc2c(cc1C3(C)C)=[N+](Cc1ccc(S(=O)(=O)O)cc1S(=O)(=O)O)C(C)(C)C=C2CS(=O)(=O)O [Compound 65]
29 | 645^b nm | 665^b nm |  |  | CCN1c2cc3c(cc2C(CS(=O)(=O)O)CC1(C)C)C(c1ccccc1C(=O)N(C)CCCC(=O)O)=c1cc2c(cc1C3(C)C)=[N+](Cc1ccc(S(=O)(=O)O)cc1S(=O)(=O)O)C(C)(C)CC2CS(=O)(=O)O (stereo not shown) [Compound 66]
30 | 679^b nm | 707^b nm |  |  | CN(CCCC(=O)O)C(=O)c1ccccc1C1=c2cc3c(cc2C(C)(C)c2cc4c(cc21)C(CS(=O)(=O)O)=CC(C)(C)N4Cc1ccc(S(=O)(=O)O)cc1S(=O)(=O)O)=[N+](Cc1ccc(S(=O)(=O)O)cc1S(=O)(=O)O)C(C)(C)C=C3CS(=O)(=O)O [Compound 67]
31 | 645^b nm | 666^b nm |  |  | CN(CCCC(=O)O)C(=O)c1ccccc1C1=c2cc3c(cc2C(C)(C)c2cc4c(cc21)C(CS(=O)(=O)O)CC(C)(C)N4Cc1ccc(S(=O)(=O)O)cc1S(=O)(=O)O)=[N+](Cc1ccc(S(=O)(=O)O)cc1S(=O)(=O)O)C(C)(C)CC3CS(=O)(=O)O (stereo not shown) [Compound 68]
32 | 730^b nm | 751^b nm |  |  | CN(C)c1ccc2c(c1)C(C)(C)c1cc3c(cc1=C2C#N)CCC[N+]=3Cc1ccc(S(=O)(=O)O)cc1S(=O)(=O)O [Compound 77]
33 | 463 nm | 609^b nm | 468 nm |  | CN(C)c1ccc2c(c1)C(C)(C)c1cc3c(cc1=C2NCCCCCC(=O)O)CCC[N+]=3Cc1ccc(S(=O)(=O)O)cc1S(=O)(=O)O [Compound 78]
34 | 490^b nm | 644^b nm |  |  | CC1(C)c2cc3c(cc2C(NCC(S(=O)(=O)O)S(=O)(=O)O)=c2cc4c(cc21)=[N+](Cc1ccc(S(=O)(=O)O)cc1S(=O)(=O)O)C(C)(C)C=C4CS(=O)(=O)O)CCCN3CCCC(=O)O [Compound 84]
35 | 496^b nm | 673^b nm |  |  | C[N+](C)=C1C=CC2=C(NC(CCS(=O)(=O)O)C(=O)O)c3cc4c(cc3C(C)(C)C2=C1)N(Cc1ccc(S(=O)(=O)O)cc1S(=O)(=O)O)CCC4 (stereo not shown) [Compound 85]
36 | 502^b nm | 660^b nm |  |  | CC1(C)c2cc3c(cc2C(NCC(S(=O)(=O)O)S(=O)(=O)O)=c2cc4c(cc21)=[N+](Cc1ccc(S(=O)(=O)O)cc1S(=O)(=O)O)C(C)(C)C=C4CS(=O)(=O)O)C(CS(=O)(=O)O)=CC(C)(C)N3CCCC(=O)O [Compound 86]
